Each block holds one molecule with its values, some of them ahead of it.
How the values were obtained:
[1] = biological target: T1, Cyclin-dependent kinases regulatory subunit 1/S-phase kinase-associated protein 2 (Homo sapiens, UniProt P61024+Q13309); experiment: Inhibition of GST-tagged SKP2 (unknown origin)/His6-tagged CKS1 (unknown origin) expressed in Escherichia coli protein-protein interaction after 1 hr by Alpha screen assay
Target sequence in this assay (P61024 whole entry): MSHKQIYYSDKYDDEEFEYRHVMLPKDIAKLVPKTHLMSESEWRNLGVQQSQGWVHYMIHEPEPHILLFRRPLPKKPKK
Target sequence in this assay (Q13309 whole entry): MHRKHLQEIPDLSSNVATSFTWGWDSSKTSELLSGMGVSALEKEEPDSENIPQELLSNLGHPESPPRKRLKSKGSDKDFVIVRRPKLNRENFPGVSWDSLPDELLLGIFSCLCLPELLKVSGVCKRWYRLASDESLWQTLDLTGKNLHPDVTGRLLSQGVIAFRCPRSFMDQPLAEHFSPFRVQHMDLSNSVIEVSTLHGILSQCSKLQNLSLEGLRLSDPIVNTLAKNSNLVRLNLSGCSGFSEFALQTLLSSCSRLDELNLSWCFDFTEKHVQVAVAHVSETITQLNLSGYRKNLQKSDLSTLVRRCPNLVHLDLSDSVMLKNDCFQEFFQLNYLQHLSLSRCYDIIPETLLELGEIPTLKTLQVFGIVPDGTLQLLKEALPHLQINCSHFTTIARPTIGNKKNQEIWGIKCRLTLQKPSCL

HeLa = experiment: Antiproliferative activity against human HeLa cells; assay type: functional, cell-based
[2] = Antiproliferative activity against mouse tsFT210 cells; assay type: functional, cell-based
NIH3T3 = experiment: Antiproliferative activity against mouse NIH/3T3 cells; assay type: functional, cell-based
[3] = biological target: T1, Cyclin-dependent kinases regulatory subunit 1/S-phase kinase-associated protein 2; experiment: Inhibition of N-terminal fluorescent monomeric Azami Green-tagged SKP2 (unknown origin)/CKS1 (unknown origin) expressed in Escherichia coli DH10 protein-protein interaction assessed as reduction in p27 ubiquitylation at 0.4 to 3.2 uM relative to control
Target sequence in this assay (P61024 2-79 limits assumed): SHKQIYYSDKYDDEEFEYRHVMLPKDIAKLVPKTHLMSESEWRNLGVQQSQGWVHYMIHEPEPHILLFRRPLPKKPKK
Target sequence in this assay (Q13309 whole entry partner): as the sequence (Q13309 whole entry) above

JeKo-1 = experiment: Antiproliferative activity against human JeKo1 cells; assay type: functional, cell-based
[4] = Antiproliferative activity against human ECC1 cells; assay type: functional, cell-based; conditions: ECC-1
RPMI-8226 [5] = experiment: Antiproliferative activity against human RPMI8226 cells; assay type: functional, cell-based
U-266 = experiment: Antiproliferative activity against human U266 cells; assay type: functional, cell-based
MM1.S = experiment: Antiproliferative activity against human MM1S cells; assay type: functional, cell-based
[6] = Antiproliferative activity against human ANBL-6 cells; assay type: functional, cell-based
[7] = Antiproliferative activity against human RPMI8226/LR5 cells; assay type: functional, cell-based; conditions: RPMI-8226
RPMI-8226 [8] = experiment: Antiproliferative activity against doxorubicin-resistant human RPMI8226 cells; assay type: functional, cell-based
[9] = Antiproliferative activity against human U266/LR6 cells; assay type: functional, cell-based; conditions: U-266
[10] = Antiproliferative activity against human MM1R cells; assay type: functional, cell-based; conditions: MM.1R
[11] = Antiproliferative activity against human ANBL6/B7R cells; assay type: functional, cell-based; conditions: ANBL-6
[12] = tested on: S-phase kinase-associated protein 1/S-phase kinase-associated protein 2 (Homo sapiens); experiment: Inhibition of SKP1/SKP2 protein-protein interaction in human MM1S cells assessed as reduction in p27 ubiquitylation at 10 uM after 16 hrs by PAGE analysis relative to control
[13] = tested on: S-phase kinase-associated protein 1/S-phase kinase-associated protein 2 (Homo sapiens); experiment: Inhibition of SKP1/SKP2 protein-protein interaction in human MM1S cells assessed as reduction in p27 ubiquitylation at 20 uM after 16 hrs by PAGE analysis relative to control
[14] = tested on: S-phase kinase-associated protein 1/S-phase kinase-associated protein 2 (Homo sapiens); experiment: Inhibition of SKP1/SKP2 protein-protein interaction in human MM1S cells assessed as reduction in p27 ubiquitylation at 25 uM after 16 hrs by PAGE analysis relative to control

Compound: C=C(C)C(=O)O[C@H]1CC(=C)[C@@H]2C[C@H](O)[C@](O)(CCl)[C@@H]2[C@H]2OC(=O)C(=C)[C@@H]21
IC50 (HeLa): 3200 nM
IC50 [2]: 1600 nM
IC50 (NIH3T3): 12.7 µM
inhibition [3]: 70 to 80%

Compound: COC(=O)C1=C(C)N(c2ccc(Br)cc2)C(=O)/C1=C\c1ccccc1O
EC50 (JeKo-1): 9.3 µM
EC50 [4]: 14.3 µM

Second part, led by results:

IC50 [1]: 36 µM
Compound: O=C(OC12CC3CC(CC(C3)C1)C2)c1ccc(NCc2cc(O)ccc2O)cc1

IC50 (HeLa): 400 nM
Compound: CN(C)c1ccc(C(=C2C=CC(=[N+](C)C)C=C2)c2ccc(N(C)C)cc2)cc1 [GENTIAN VIOLET]
IC50 [2]: 600 nM
IC50 (NIH3T3): 5.3 µM

IC50 (RPMI-8226 [5]): 8 µM
IC50 (MM1.S): 5.4 µM
IC50 (RPMI-8226 [8]): 8.5 µM
inhibition [12]: 8%
inhibition [13]: 44%
inhibition [14]: 51%
Compound: CN(C)c1ccc(CNCCC(Cc2ccccc2)C2CCOC(C)(C)C2)cc1 (configuration not stated)
IC50 (U-266): 4.2 µM
IC50 [6]: 10 µM
IC50 [7]: 6.3 µM
IC50 [9]: 4.3 µM
IC50 [10]: 5.4 µM
IC50 [11]: 8 µM

Reference: ChEMBL document CHEMBL4257523, “Chemical probes of Skp2-mediated p27 ubiquitylation and degradation” (Medchemcomm, 2018)
